Series [1] concerns cells (sub-cellular distribution). Briefly: Fluorescent labelling of clickable molecules (sub-cellular distribution). Type of series: cell-based. The conditions noted are these: 2 hours pre-incubation, Alexa fluor 488 Azide click. Here is the method:
Cells were pre-incubated with clickable molecules Compound 3 or Reference Compound A (1-Chloro-4-ethynilbenzene, purchased from Sigma-Aldrich) for 2 hours before being fixed and permeabilised as described above. Click reaction was prepared using Invitrogen Click-iT reagents with Alexa fluor 488 Azide and incubated with fixed cells for 1 hour in the dark. In case of co-labelling with another protein, the click reaction was performed before the antibody incubations.

Series [2] has as its system Lamin A/C depleted (siLMNA) U2OS cells. Briefly: Nuclear shape rescue (DAPI staining, nuclear circularity) in Lamin A/C depleted cells. It is filed as cell-based, human. The settings on record: 16 hours, Compound 2 and 3 50 μM, MB-3 5 μM, FTI 5 μM, nocodazole 200 ng/ml, colchicine 1 μg/ml, latrunculin A 1 μM. Here is the method: (§1) U2OS and SaOS-2 osteosarcoma cells, HeLa cervical cancer cells, A431 melanoma cells, NCI-SNU5 gastric cancer cells, MRC-5 lung fibroblast cells and Werner syndrome patient-derived SV40 fibroblast cells were grown in Dulbecco's modified Eagle medium (DMEM, Sigma-Aldrich) supplemented with 10% fetal bovine serum (BioSera), 2 mM L-glutamine, 100 U per ml penicillin, 100 μg ml^−1 streptomycin. Normal skin primary fibroblasts GM03440 and Hutchinson Gilford Progeria Syndrome (HGPS) skin primary fibroblasts AG11498 and AG06297 were purchased from Coriell Cell Repositories and used between passage number 9-12 and 20-23 respectively. Cells were grown in DMEM supplemented as above. RPE-1 retinal pigment epithelial cells were grown in DMEM and Ham F12 mix medium supplemented as above and buffered with sodium bicarbonate. HMV-II melanoma cell line, 22RV1 prostate carcinoma cells, NCI-H82 and NCI-H69 lung carcinoma cells, and NCI-N87 gastric cancer cell lines were grown in RPMI-1640 medium (Sigma-Aldrich) supplemented as above. Stably transfected U2OS cells were maintained in standard medium containing 1 mg ml^−1 G418 (Invitrogen). The siRNA duplexes were obtained from Life Sciences: Lamin A/C stealth RNAi: […] (SEQ ID NO: 1) and […] (SEQ ID NO: 2), NAT10 stealth RNAi: […] (SEQ ID NO: 3), and as control siRNA, stealth RNAi negative control duplexes were used. Plasmid DNA and siRNA transfections were carried out using Lipofectamine 2000 and Lipofectamine RNAiMax (Life Sciences) respectively, following the manufacturer's instructions. Cells were analysed 48 to 72 hours after transfection.
(§2) The following KAT and KDAC inhibitors were used in the nuclear shape rescue screen, incubating cells with the molecules for 16 hours: trichostatin A (1 μM), sodium butyrate (5 mM), tubacin (10 μM), SAHA (5 μM), curcumin (10 μM), garcinol (50 μM), anacardic acid (1 μM), MB-3 (5 μM), 4-(4-chlorophenyl)-2-(2-cyclopentylidenehydrazinyl)thiazole (Compound 2) (50 μM), 4-(4-chlorophenyl)-2-(2-cyclopentylidene-1-(prop-2-yn-1-yl)hydrazinyl)thiazole (Compound 3) (50 μM) and cyclopentylidene-[4-(4-cyanophenyl)thiazol-2-yl)hydrazine (Compound 1) (Remodelin) (10 to 50 μM). For HGPS cellular fitness assays, Remodelin was incubated at 1 μM for 1 to 10 days, renewing the medium every 3 days. For long-term senescence assay, cells were kept and passaged in medium containing 1 μM Remodelin or DMSO only for 12 population doublings. Senescence was assessed after 8 days of Remodelin treatment when cells were at Population Doubling 12, and then after several weeks of Remodelin treatment, when cells reached Population Doubling 24 using the Senescence β-Galactosidase Staining Kit #9860 from Cell Signaling. Nocodazole, colchicine and latrunculin A (Sigma-Aldrich) were used at 200 ng/ml, 1 μg/ml and 1 μM respectively. Aphidicolin (Sigma-Aldrich) was used at 5 μg/ml for 16 h. Farnesyltransferase inhibitor FTI-277 was purchased from Tocris Bioscience and used at 5 μM. ATMi (KU55933) and ATRi (ATR-45) were obtained from Tocris Bioscience and from the Ohio State University respectively and used at 10 μM and 500 nM. Pifithrin alpha (Sigma-Aldrich) was used at 10 μM.
CellProfiler software was used to quantify nuclear circularity and nuclear area from DAPI staining pictures, using the “object size shape” measurement. The AreaShape measurement allowed the calculation of the Form Factor index ([…]) corresponding to circularity (a Form Factor of 1 reflecting a perfect circle), as well as the calculation of nuclear Area.
Lamin A/C was depleted by siRNA in U2OS cells (siLMNA) to induce misshapen nuclei. Cells were then treated for 16 h with various analogues of Compound 2 and nuclear shape rescue was analysed by DAPI staining. The results are shown in FIG. 18 and FIG. 19 which display the structures of the tested molecules and their ability to rescue nuclear shape.

Series [3] has as its system HGPS AG11498 cells. Kind of series: Senescence-associated β-galactosidase in HGPS cells. Type of series: cell-based, human. The conditions noted are these: HGPS AG11498; Remodelin 1 μM, Pifithrin alpha 10 μM. As for the experimental part:
as §2

Series [4] concerns U2OS cells transfected with siCT or siLMNA. Kind of series: Cell density after cycloheximide (DAPI staining). It is filed as cell-based, human. The settings on record: 24 h treatment. As for the experimental part: FIG. 16: Compound 2 decreases protein translation of Lamin A/C depleted cells. A) U2OS cells transfected with siRNA control (siCT) or siRNA Lamin A/C (siLMNA) were plated at the same density, treated with cycloheximide (CHX) for 24 h to inhibit protein synthesis and stained with DAPI. […] B) Protein synthesis was measured by quantifying the incorporation of HPG, a clickable analogue of methionine.

For series [5], the system named is LMNA knock out (KO) U2OS cell line. Briefly: Cell growth of LMNA KO versus LMNA WT U2OS cells (IncuCyte ZOOM). Type of series: cell-based, human. The settings on record: U2OS LMNA KO. An excerpt:
LMNA knock out (KO) U2OS cell line was engineered using CripR/Cas9 technology. The sensitivity of LMNA KO cells to Compound 2 was compared to cells expressing wild type LMNA (LMNA WT). Cell growth was monitored automatically over time using an IncuCyte ZOOM®. The results are shown in FIG. 21 which has been split into two graphs for easier reading of the curves.

Series [6] concerns HGPS primary fibroblasts (AG11498 and AG06267). Kind of series: Misshapen nuclei in HGPS cells. It is filed as cell-based, human. The settings on record: HGPS patient fibroblasts. As for the experimental part:
as §1
as §2, with “Aphidicolin (Sigma-Aldrich) was used at 5 μg/ml for 16 h. Farnesyltransferase inhibitor FTI-277 was purchased from Tocris Bioscience and used at 5 μM. ATMi (KU55933) and ATRi (ATR-45) were obtained from Tocris Bioscience and from the Ohio State University respectively and used at 10 μM and 500 nM. Pifithrin alpha (Sigma-Aldrich) was used at 10 μM.” left out

In series [7] the test system is farnesyltransferase activity (pre-Lamin A cleavage and maturation). Briefly: Lamin A processing by western blotting. It is filed as cell-based, human. As for the experimental part: as §2, with “Nocodazole, colchicine and latrunculin A (Sigma-Aldrich) were used at 200 ng/ml, 1 μg/ml and 1 μM respectively. Aphidicolin (Sigma-Aldrich) was used at 5 μg/ml for 16 h. Farnesyltransferase inhibitor FTI-277 was purchased from Tocris Bioscience and used at 5 μM. ATMi (KU55933) and ATRi (ATR-45) were obtained from Tocris Bioscience and from the Ohio State University respectively and used at 10 μM and 500 nM. Pifithrin alpha (Sigma-Aldrich) was used at 10 μM.” left out
Total cell extracts were prepared by scraping cells in SDS lysis buffer (4% SDS, 20% glycerol, and 120 mM Tris-HCl, pH 6.8), boiling for 5 minutes at 95° C., followed by 10 strokes through a 25-gauge needle. […] Detection and quantification was performed with an imager (Odyssey; LI-COR Biosciences).
(In western blotting, separated proteins are transferred to a membrane and probed.)

Series [8] deals with normal human fibroblasts. Kind of series: Nuclear shape of normal fibroblasts, with or without FTI. Type of series: cell-based. An excerpt: FIG. 11: Remodelin prevents FTI induced nuclear shape defects in non-progeric cells. A) Analysis of Lamin A/C processing after Remodelin or FTI treatment, showing that Remodelin is not a FTI. B) Representative pictures of Lamin A/C IF staining after the indicated treatments. Arrows indicate FTI induced misshapen nuclei in normal fibroblasts. Scale bar: 50 μm. C) Quantification of misshapen nuclei with the indicated cell lines and inhibitor treatments (means of three independent experiments±s.e.m. n>178). D) Representative pictures of DAPI staining showing effects of FTI and Remodelin on nuclear shape of U2OS cells. Scale bars: 20 μm.
U2OS and SaOS-2 osteosarcoma cells, HeLa cervical cancer cells, A431 melanoma cells, NCI-SNU5 gastric cancer cells, MRC-5 lung fibroblast cells and Werner syndrome patient-derived SV40 fibroblast cells were grown in Dulbecco's modified Eagle medium (DMEM, Sigma-Aldrich) supplemented with 10% fetal bovine serum (BioSera), 2 mM L-glutamine, 100 U per ml penicillin, 100 μg ml^−1 streptomycin. […] Cells were analysed 48 to 72 hours after transfection.
The following KAT and KDAC inhibitors were used in the nuclear shape rescue screen, incubating cells with the molecules for 16 hours: trichostatin A (1 μM), sodium butyrate (5 mM), tubacin (10 μM), SAHA (5 μM), curcumin (10 μM), garcinol (50 μM), anacardic acid (1 μM), MB-3 (5 μM), 4-(4-chlorophenyl)-2-(2-cyclopentylidenehydrazinyl)thiazole (Compound 2) (50 μM), 4-(4-chlorophenyl)-2-(2-cyclopentylidene-1-(prop-2-yn-1-yl)hydrazinyl)thiazole (Compound 3) (50 μM) and cyclopentylidene-[4-(4-cyanophenyl)thiazol-2-yl)hydrazine (Compound 1) (Remodelin) (10 to 50 μM). […] Senescence was assessed after 8 days of Remodelin treatment when cells were at Population Doubling 12, and then after several weeks of Remodelin treatment, when cells reached Population Doubling 24 using the Senescence β-Galactosidase Staining Kit #9860 from Cell Signaling. […]

Where a name gives a salt, the structure may show the parent alone.

With `C#Cc1ccc(Cl)cc1` [Reference Compound A, 1-Chloro-4-ethynilbenzene, reference compound], the “sub-cellular distribution of fluorescently labelled molecule” value in series [1] was “little or no cellular staining”. In series [2], the “nuclear shape / nuclear circularity rescue” value was “inactive”.
For the molecule Pifithrin [reference compound], the “senescence of HGPS cells (β-galactosidase positive cells)” value in series [3] is “none of these compounds decrease the senescence”.
On to `C[C@@H]1C[C@@H]([C@H](O)CC2CC(=O)NC(=O)C2)C(=O)[C@@H](C)C1` [CHX, cycloheximide], for which the “resistance of siLMNA versus siCT cells to protein synthesis inhibition” value in series [4] is “siLMNA cells are more resistant to CHX”.
Take `FC(F)(F)c1ccc(-c2csc(NN=C3CCCC3)n2)cc1` [Compound 13, 4-(4-Trifluoromethylphenyl)-2-(2-cyclopentylidenehydrazinyl)thiazole Hydrobromide Salt]: in series [5], the “potency on LMNA KO cell growth inhibition compared to Compound 2” value is reported as “increased potency of Compound 13, compared to Compound 2”.
In the case of `C/C1=C/C(=O)O[C@@H]2C[C@@H](CC[C@H](C)/C=C\C=C\CC1)O[C@@](O)([C@@H]1CSC(=O)N1)C2` [latrunculin A], in series [2], the “nuclear shape / nuclear circularity rescue” value is given as “increased nuclear distortion”.
With `COC(=O)Nc1nc2ccc(C(=O)c3cccs3)cc2[nH]1` [nocodazole], in series [2], the “nuclear shape / nuclear circularity rescue” value was “also rescued the nuclear shape defects of siLMNA cells”. Also, the “misshapen nuclei / nuclear shape of HGPS cells” value (“misshapen nuclei / nuclear shape” for short) in series [6] is “also rescued the nuclear shape defects”.
Turning to `COC(=O)[C@H](CCSC)NC(=O)c1ccc(NC[C@@H](N)CS)cc1-c1ccccc1` [FTI, reference compound], the “nuclear shape / nuclear circularity rescue” value in series [2] is reported as “does not improve nuclear morphology in LMNA-depleted cells”. The “pre-Lamin A processing” value in series [7] is “caused accumulation of the pre-Lamin A intermediate”. Also, the “misshapen nuclei / nuclear shape” value in series [6] is on record as “improves the nuclear shape of HGPS cells”. In addition, the “nuclear shape of normal cells” value in series [8] is listed as “has the opposite effect on normal cells”.
On to `COc1cc2c(c(OC)c1OC)-c1ccc(OC)c(=O)cc1[C@@H](NC(C)=O)CC2` [colchicine], for which the “nuclear shape / nuclear circularity rescue” value in series [2] was “also rescued the nuclear shape defects of siLMNA cells”. Also, in series [6], the “misshapen nuclei / nuclear shape” value is on record as “also rescued the nuclear shape defects”.
Take `C=C1C(=O)OC(CCC)C1C(=O)O` (stereo not drawn) [MB-3]: in series [2], the “nuclear shape / nuclear circularity rescue” value is given as “did not improve nuclear circularity”.

These data come from patent US9809562B2, “NAT10 modulators for treating or preventing laminopathies, aging and cancer” (CAMBRIDGE ENTERPRISE LIMITED, priority 2014, dated 2017).
